Reference: paper PMC3006138, “Fexinidazole – A New Oral Nitroimidazole Drug Candidate Entering Clinical Development for the Treatment of Sleeping Sickness” (PLoS Neglected Tropical Diseases, 2010)

Tests used:
[1] = Mouse single-dose plasma pharmacokinetics; format: in vivo; conditions: for AUC(0-t) / Cmax / Tmax / AUC(0-inf) / half-life / bioavailability / AUC0–24: plasma; for bioavailability: fexinidazole 25 mg/kg po vs 1 mg/kg iv
Method: Blood samples were taken via into heparinised collection tubes and, following centrifugation, plasma was removed and stored frozen until required for assay.
All PK evaluations were carried out using validated high performance liquid chromatography (HPLC) and LC-MS assays, as per standard operating procedures of the laboratories involved.
One mouse PK and brain sampling study was carried out by BioDynamics Ltd., Rushden, UK, according to internal Standard Operating Procedures as a non-GLP regulated study, and animals were maintained as required by the “Code of practice for the housing and care of animals used in scientific procedures” (Home Office, London, 1989).
BioDynamics Study No: DND/01
Two groups of female mice were dosed as follows:
Number Treatment Dose (mg/kg) Route
All doses are expressed as free base
Intravenous doses were administered into a lateral tail vein using an appropriately sized syringe and 25G needle and the oral formulation by oral gavage using a polypropylene gavage tube. All doses were given as a single bolus dose at a constant dose volume of 10.0 mL/kg.
1.6 Blood sample collection
At each sampling time point, three animals in each treatment group were deeply anaesthetised using isoflurane and blood samples (approximately 1 mL) taken into individual heparinised tubes by cardiac puncture, following which the animals were killed by cervical fracture. Samples were collected at the following times post-dose:
Following collection, the blood samples were centrifuged (approximately 10000 g, 2 min at 4 °C) and the plasma retained as one aliquot at approximately -70°C prior to analysis of test material concentrations at BioDynamics by LC-MS/MS.
1.7 Collection of terminal brain samples
Following collection of the terminal blood sample the cranium of each mouse was carefully opened and the brain removed. Excess blood was washed from the brain with distilled water and any excess fluid blotted on absorbent paper. The brain was then snap frozen using liquid nitrogen and placed into a suitably labelled container and stored frozen at approximately -70°C pending analysis.
All of the plasma samples together with the brains from the 15 minute time point were analysed for concentrations of the test material and its sulfone and sulfoxide metabolites. In addition the brains from the 5 and 30 minute time points for the intravenously treated and the 30 and 60 minute time points for the orally treated animals were analysed for concentrations of Fexinidazole and its sulfone and sulfoxide metabolites using an LC-MS/MS method developed at BioDynamics.
All samples were treated as temperature sensitive. Blood samples were collected onto wet ice, followed by centrifugation at 4 °C. Plasma and brain samples were snap frozen on dry ice (plasma) or liquid nitrogen (brains) prior to long term storage at less than -70 °C pending analysis.
Summed transitions were used to enhance sensitivity. No instability of the test materials was noted during the course of analysis or on re-injection of the samples into the mass spectrometer under the […]
3. Pharmacokinetic analysis
The plasma concentration vs time curves obtained following intravenous and oral administration of the test compounds to female mice were analysed using WinNonLin (Version 4.1, Scientific Consulting
Inc. USA). The kinetic data were characterised by a non-compartmental analysis (NCA).
The following pharmacokinetic parameters were derived from the profiles: maximum peak plasma concentration (Cmax); the time of maximum observed concentration (Tmax); the terminal half life (T½), and area under the plasma concentration curve (AUC), 3.1.1 Area under the curve (AUC)
The AUC was determined using the linear/log trapezoidal method. A value of zero was used for any plasma concentrations recorded as below the limits of quantification (LLOQ). The AUCinf (observed) was calculated as the area under the curve from the time of dosing extrapolated to time infinity based on the observed concentrations. The AUClast was also determined. […]

[2] = Dog 28-day toxicokinetics; format: in vivo; conditions: both sexes, beagle, plasma, po
Method: In the dog repeated-dose toxicokinetic study, fexinidazole was given orally by gavage once a day for 28 days to five (control and high dose) or three (low and mid dose) beagle dogs/sex/dose at the doses of 0 (control group), 50, 200, or 800 mg/kg/day. The control group received the vehicle alone (same as above). Systemic exposure to fexinidazole and of its sulfoxide and sulfone metabolites was evaluated on days 1, 14 and 28 in the same animals used for the toxicological study. Samples were taken at predose, and 30 min, 1, 2, 4, 8 and 24 h after dosing on days 1, 14, and 28, and in addition at 48 and 72 h after treatment on day 28.

Lipophilicity (logD) = format: physicochemical; conditions: pH 7.4
[3] = One-electron reduction potential by pulse radiolysis; format: physicochemical
Method: One-electron reduction potentials were determined by pulse radiolysis following an established procedure.

[4] = female, NMRI, mouse, iv, 1 mg/kg, fexinidazole 1 mg/kg iv, read-out: AUC0-24
[5] = female, NMRI, mouse, iv, 1 mg/kg, fexinidazole 1 mg/kg iv, read-out: Cmax
[6] = female, NMRI, mouse, po, 25 mg/kg, fexinidazole 25 mg/kg po, read-out: AUC0–24
[7] = female, NMRI, mouse, fexinidazole 1 mg/kg iv
[8] = female, NMRI, mouse, fexinidazole 25 mg/kg po
[9] = 50 mg/kg/day, 50 mg/kg/day po, day 1
[10] = 50 mg/kg/day, 50 mg/kg/day po, day 1, read-out: AUC0-t(last)
[11] = 50 mg/kg/day, 50 mg/kg/day po, day 14
[12] = 50 mg/kg/day, 50 mg/kg/day po, day 14, read-out: AUC0-t(last)
[13] = 200 mg/kg/day, 200 mg/kg/day po, day 1
[14] = 200 mg/kg/day, 200 mg/kg/day po, day 1, read-out: AUC0-t(last)
[15] = 200 mg/kg/day, 200 mg/kg/day po, day 14
[16] = 200 mg/kg/day, 200 mg/kg/day po, day 14, read-out: AUC0-t(last)
[17] = 800 mg/kg/day, 800 mg/kg/day po, day 1
[18] = 800 mg/kg/day, 800 mg/kg/day po, day 1, read-out: AUC0-t(last)
[19] = 800 mg/kg/day, 800 mg/kg/day po, day 14
[20] = 800 mg/kg/day, 800 mg/kg/day po, day 14, read-out: AUC0-t(last)
[21] = female, NMRI, mouse, po, 25 mg/kg, fexinidazole 25 mg/kg po, female NMRI mice, read-out: Cmax

Row | SMILES | AUC(0-t) [1, 4] [ng·h/mL] | Cmax [1, 5] [ng/mL] | AUC(0-t) [1, 6] [ng·h/mL] | Tmax [1, 7] [h] | AUC(0-inf) [1, 8] [ng·h/mL] | Tmax [1, 8] [h] | half-life [1, 8] [h] | Cmax [2, 9] [ng/mL] | Tmax [2, 9] [h] | AUC(0-t) [2, 10] [ng·h/mL] | Cmax [2, 11] [ng/mL] | Tmax [2, 11] [h] | AUC(0-t) [2, 12] [ng·h/mL] | Cmax [2, 13] [ng/mL] | Tmax [2, 13] [h] | AUC(0-t) [2, 14] [ng·h/mL] | Cmax [2, 15] [ng/mL] | Tmax [2, 15] [h] | AUC(0-t) [2, 16] [ng·h/mL] | Cmax [2, 17] [ng/mL] | also measured
1 | Cn1c([N+](=O)[O-])cnc1COc1ccc(S(C)(=O)=O)cc1 [Fexinidazole sulfone] | 7990 | 511 | 96300 | 2 | 96300 | 4 | 1.7 | 8580 ± 2150 | 7.33 ± 1.63 | 146000 ± 38300 | 7780 ± 2890 | 5.33 ± 2.07 | 126000 ± 59100 | 17600 ± 2460 | 12.7 ± 8.91 | 348000 ± 63900 | 21800 ± 3860 | 5.33 ± 2.07 | 384000 ± 49900 | 36100 ± 7940 | bioavailability ([1]; female, NMRI, mouse): 48.8%; Cmax ([1]; fexinidazole 1 mg/kg iv): 790.4 ng/mL; Cmax ([1]; fexinidazole 25 mg/kg po, female NMRI mice, listed as Sulfone): 13651.3 ng/mL; Cmax ([1]; fexinidazole 25 mg/kg po, female NMRI mice, listed as Sulfone metabolite): 13651 ng/mL; Cmax ([1]; fexinidazole 25 mg/kg po, female NMRI mice, listed as sulfone): 6599.6 ng/mL; AUC0–24 ([1]; fexinidazole 25 mg/kg po, listed as Sulfone metabolite): 96286 ng·h/mL; Tmax [2, 17]: 14.4 ± 8.26 h; AUC(0-t) [2, 18]: 660000 ± 164000 ng·h/mL; Cmax [2, 19]: 36600 ± 6240 ng/mL; Tmax [2, 19]: 6.8 ± 1.93 h; AUC(0-t) [2, 20]: 653000 ± 118000 ng·h/mL; logD (Lipophilicity (logD)): 0.74; single electron redox potential [3]: −488 mV
2 | Cn1c([N+](=O)[O-])cnc1COc1ccc([S+](C)[O-])cc1 (centres unmarked) [Fexinidazole sulfoxide] | 1590 | 918 | 45000 | 0.25 | 45000 | 0.5 | 1 | 3760 ± 970 | 1.17 ± 0.41 | 19600 ± 5680 | 2990 ± 980 | 1.33 ± 0.52 | 13600 ± 5990 | 8120 ± 2660 | 1.25 ± 0.61 | 51400 ± 14100 | 8990 ± 2830 | 2 | 56700 ± 16600 | 14500 ± 3950 | Cmax [1, 21]: 14200 ng/mL; AUC(0-inf) [1, 7]: 1560 ng·h/mL; half-life [1, 7]: 0.6 h; AUC0–24 ([1]; fexinidazole 25 mg/kg po, listed as Sulfoxide metabolite): 45031 ng·h/mL; Tmax [2, 17]: 1.55 ± 0.6 h; AUC(0-t) [2, 18]: 112000 ± 31800 ng·h/mL; Cmax [2, 19]: 13600 ± 4090 ng/mL; Tmax [2, 19]: 1.6 ± 0.97 h; AUC(0-t) [2, 20]: 129000 ± 39800 ng·h/mL; logD (Lipophilicity (logD)): 0.52; single electron redox potential [3]: −493 mV
3 | CSc1ccc(OCc2ncc([N+](=O)[O-])n2C)cc1 [Fexinidazole, 1-methyl-2-((p-(methylthio)phenoxy)methyl)-5-nitroimidazole] | 41 | 164 | 424 | 0.0833 | 439 | 0.25 | 0.8 | 40 ± 10 | 0.75 ± 0.61 | 190 ± 130 | 30 ± 10 | 1.08 ± 0.74 | 150 ± 130 | 70 ± 30 | 1 ± 0.55 | 440 ± 90 | 80 ± 10 | 1.5 ± 0.77 | 450 ± 140 | 140 ± 70 | clinical signs ([1]; 1 mg/kg iv or 25 mg/kg po): No clinical signs were observed; Cmax [1, 21]: 500 ng/mL; AUC(0-inf) [1, 7]: 42 ng·h/mL; half-life [1, 7]: 0.1 h; bioavailability ([1]; female, NMRI, mouse): 41.4%; bioavailability ([1]; female, mouse): 41%; Cmax ([1]; fexinidazole 25 mg/kg po, female NMRI mice): 500 ng/mL; Tmax [2, 17]: 1.15 ± 0.47 h; AUC(0-t) [2, 18]: 840 ± 320 ng·h/mL; Cmax [2, 19]: 140 ± 50 ng/mL; Tmax [2, 19]: 1.2 ± 0.42 h; AUC(0-t) [2, 20]: 1050 ± 300 ng·h/mL; logD (Lipophilicity (logD)): 2.83; single electron redox potential [3]: −511 mV
